# Test results from PubChem BioAssay (NCI).
#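 At the GI50, growth is halved. TGI: concentration producing complete growth inhibition.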
# What was measured:
# Assay in all cases: inhibition of tumour cell growth, NCI panel, 384-well format
# U251 glioblastoma = test system: U251 glioblastoma
# UO-31 renal = test system: UO-31 renal
# M14 melanoma = test system: M14 melanoma
# MOLT-4 leukemia = test system: MOLT-4 leukemia
# NCI-H522 lung = test system: NCI-H522 lung
# A498 renal = test system: A498 renal
# MALME-3M melanoma = test system: MALME-3M melanoma
# T-47D breast = test system: T-47D breast
# MDA-MB-231 breast = test system: MDA-MB-231 breast
# K-562 leukemia = test system: K-562 leukemia
# OVCAR-5 ovarian = test system: OVCAR-5 ovarian
# SK-MEL-2 melanoma = test system: SK-MEL-2 melanoma
# NCI-H460 NSCLC = test system: NCI-H460 NSCLC
smiles,measurement,setting,value
CNCc1ccc(C)c(NC(=O)c2ccc(Nc3nc(-c4ccccc4)c4ccccc4n3)cc2)c1,GI50,U251 glioblastoma,1.73 µM
same,TGI,U251 glioblastoma,3.13 µM
same,GI50,UO-31 renal,1.97 µM
same,TGI,UO-31 renal,3.4 µM
same,GI50,M14 melanoma,2.03 µM
same,TGI,M14 melanoma,3.47 µM
same,GI50,MOLT-4 leukemia,1.51 µM
same,TGI,MOLT-4 leukemia,2.85 µM
same,GI50,NCI-H522 lung,1.84 µM
same,TGI,NCI-H522 lung,3.25 µM
same,GI50,A498 renal,1.63 µM
same,TGI,A498 renal,3 µM
same,GI50,MALME-3M melanoma,1.31 µM
same,TGI,MALME-3M melanoma,2.59 µM
same,GI50,T-47D breast,1.45 µM
same,TGI,T-47D breast,2.78 µM
same,GI50,MDA-MB-231 breast,1.84 µM
same,TGI,MDA-MB-231 breast,3.25 µM
same,GI50,K-562 leukemia,1.4 µM
same,TGI,K-562 leukemia,2.74 µM
same,GI50,OVCAR-5 ovarian,2.04 µM
same,TGI,OVCAR-5 ovarian,3.99 µM
same,GI50,SK-MEL-2 melanoma,1.81 µM
same,TGI,SK-MEL-2 melanoma,3.21 µM
same,GI50,NCI-H460 NSCLC,1.36 µM
same,TGI,NCI-H460 NSCLC,2.71 µM
